In brackets after ≈: the same amount, converted by molar mass.
System: Staphylococcus aureus, ATCC 25923 (金黄色葡萄球菌,ATCC 25923)
Experiment: MIC by broth microdilution (微量肉汤稀释法)
Format: cell-based
Conditions: ATCC25923, 16 h, MH broth, pH 7.2~7.4, 35℃, 16~20 h

MIC [µg/mL]	Structure (SMILES)
< 0.3	COc1c(N2CCN3CCCCC3C2)c(F)cc2c(=O)c(C(=O)O)cn(C3CC3)c12 (centres unmarked) [例子1, 7-(八氢-2H-吡啶并[1,2-a]吡嗪基)-1-环丙基-6-氟-1,4-二氢-8-甲氧基-4-氧代-3-喹啉羧酸]
< 0.1	COc1c(N2CCN3CCCC3C2)c(F)cc2c(=O)c(C(=O)O)cn(C3CC3)c12 (centres unmarked) [例子2, 7-(六氢吡咯并[1,2-a]吡嗪基)-1-环丙基-6-氟-1,4-二氢-8-甲氧基-4-氧代-3-喹啉羧酸]
< 0.3	COc1c(N2CCN3CCNCC3C2)c(F)cc2c(=O)c(C(=O)O)cn(C3CC3)c12 (centres unmarked) [例子3, 7-(八氢-2H-吡嗪并[1,2-a]吡嗪基)-1-环丙基-6-氟-1,4-二氢-8-甲氧基-4-氧代-3-喹啉羧酸]
< 0.1	COc1c(N2CCN3CCNC3C2)c(F)cc2c(=O)c(C(=O)O)cn(C3CC3)c12 (centres unmarked) [例子4, 7-(六氢咪唑并[1,2-a]吡嗪基)-1-环丙基-6-氟-1,4-二氢-8-甲氧基-4-氧代-3-喹啉羧酸]
0.3 (≈ 0.83 µM)	CC1COc2c(N3CCN(C)CC3)c(F)cc3c(=O)c(C(=O)O)cn1c23 (centres unmarked) [氧氟沙星, reference compound]
